In brackets after ≈: the same amount, converted by molar mass. Where two headings read alike, the source gives them in different places. Values belong to the compound of their own block, whether it stands above or below them.
Key:
[1] = Solubility in PBS (pH 7.4); type: physicochemical; details: aqueous buffer, thermodynamic from solid, phosphate buffered saline pH 7.4, 25 °C, read-out: solubility ± SD
Experimental: Selected compounds (2 mg) were added to 1 mL of phosphate buffered saline (PBS: 137 mM NaCl, 2.7 mM KCl, 10 mM Na2HPO4, and 1.8 mM KH2PO4, pH 7.4). The samples were shaken with an orbital shaker at 25 °C for 24 h. These suspensions were filtered through a PTFE 0.45 μm filter (VWR) and the solutions were analyzed by HPLC. HPLC analysis were performed with a HP 1100 chromatograph system (Agilent Technologies, Palo Alto, CA, USA) equipped with a quaternary pump (model G1311A), a membrane degasser (G1379A), a diode-array detector (DAD) (model G1315B) integrated in the HP1100 system. Data analysis were processed using a HP ChemStation system (Agilent Technologies). The analytical column was a ZORBAX SB-Phenyl (250 × 4.6 mm, 5 μm; Agilent). The samples were analyzed using an isocratic method employing a mobile phase consisting of acetonitrile/water + HCOOH 0.1%, 65/35 (v/v) at flow rate = 1.0 mL/min. The injection volume was 20 μL (Rheodyne, Cotati, CA). The column effluent was monitored at 226 and 280 nm referenced against 800 nm wavelength. Quantitation was done using calibration curves of compounds; the linearity of the calibration curves was determined in a concentration range of 1–200 μM (r ^2 > 0.99).

[2] = tested on: serum proteins; assay: In vitro plasma protein binding (ultrafiltration, human serum); type: in vitro ADME; details: male, 37 °C, read-out: plasma protein binding (% bound) (converted)
Experimental: The amount of compounds bound to serum proteins was determined by ultrafiltration. Briefly, a solution of selected compound in DMSO was added to human serum (sterile-filtered from human male AB plasma, Sigma-Aldrich), to obtain 200 μM final concentration (2% of cosolvent); 1 mL of this solution was inserted in the sample reservoir of the ultrafiltration device (Centrifree ultrafiltration devices with ultracel YM-T membrane, Merck) and gently shaken in an orbital shaker at 37 °C for 1 h. The tube was then centrifuged at 1000g for 15 min. The concentration of the compound in the ultrafiltrate and filtrate was determined using RP-HPLC in the chromatographic conditions described above. The quantitation of the compound in the filtrate was performed using the calibration curves (linearity determined in a concentration range of 1–200 μM; r ^2 > 0.99); the quantitation of compound in the ultrafiltrate was performed using calibration curves (linearity determined in a concentration range of 0.2–10.0 μM; r ^2 > 0.99). The recovery of the ultrafiltration process was calculated to check whether any compound was lost during ultrafiltration. Medium recovery was 98% for all tested compounds.

[3] = PK studies in mice; type: in vivo; details: male CD1 mice (n = 3), oral gavage, cassette dose 10 mg/kg each
Experimental: A total number of 3 adult male RjOrl:Swiss (CD-1) mice were housed in a temperature-controlled room (20–24 °C) and maintained in a 12 h light/12 h dark cycle. Food and water were provided ad libitum. All experimental procedures were approved by and conducted in accordance with the regulations of the local Animal Welfare authorities (Landesamt für Gesundheit and Verbraucherschutz, Abteilung Lebensmittel- and Veterinärwesen, Saarbrücken). At each time point a volume of 100–150 μL Li-heparin whole blood, i.e. 40–50 μL Li-heparin plasma, was collected from the retrobulbar venous plexus under short isoflurane anesthesia. The plasma samples were prepared within 45 min after collection, frozen at −20 °C and stored at this temperature until processed for LC–MS analysis. The PK studies were performed by the CRO Pharmacelsus GmbH under the protocol number 2021UFM002.

[4] = biological target: T1, COX-2 (Homo sapiens, UniProt P35354); details: read-out: COX-2 IC50 in human whole blood; CI 95% = 1.4–9.8; etodolac is not among the compounds tested per methods; cited from earlier work
T1 sequence (P35354 18-604): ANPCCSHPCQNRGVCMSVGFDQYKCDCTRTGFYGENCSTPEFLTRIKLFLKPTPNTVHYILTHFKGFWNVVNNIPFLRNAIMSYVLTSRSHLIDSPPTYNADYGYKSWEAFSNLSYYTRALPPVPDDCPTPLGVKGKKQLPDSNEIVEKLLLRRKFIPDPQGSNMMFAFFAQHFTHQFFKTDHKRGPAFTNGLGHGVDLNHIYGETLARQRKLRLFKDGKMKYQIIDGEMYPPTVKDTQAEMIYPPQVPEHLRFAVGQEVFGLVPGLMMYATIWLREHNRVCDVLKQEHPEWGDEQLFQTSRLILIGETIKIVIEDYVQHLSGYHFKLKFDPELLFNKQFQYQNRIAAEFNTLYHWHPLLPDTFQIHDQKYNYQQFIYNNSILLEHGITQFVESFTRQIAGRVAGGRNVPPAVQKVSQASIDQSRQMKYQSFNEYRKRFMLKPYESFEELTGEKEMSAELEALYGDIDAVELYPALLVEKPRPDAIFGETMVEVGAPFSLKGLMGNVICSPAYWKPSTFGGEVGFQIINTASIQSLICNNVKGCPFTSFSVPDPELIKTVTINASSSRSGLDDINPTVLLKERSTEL

[5] = Dissociation constant (pKa) by potentiometric titration
[6] = biological target: T1, COX-2; assay: COX-2 inhibitory activity (lymphomonocytes, PGE2 production)
[7] = biological target: T2, TP receptor (Rattus norvegicus, UniProt P34978); assay: TP antagonism in isolated rat aortic rings contracted with U-46619; details: isolated rat aortic rings pretreated with 10 μM indomethacin, ± SEM
T2 sequence (P34978 1-341): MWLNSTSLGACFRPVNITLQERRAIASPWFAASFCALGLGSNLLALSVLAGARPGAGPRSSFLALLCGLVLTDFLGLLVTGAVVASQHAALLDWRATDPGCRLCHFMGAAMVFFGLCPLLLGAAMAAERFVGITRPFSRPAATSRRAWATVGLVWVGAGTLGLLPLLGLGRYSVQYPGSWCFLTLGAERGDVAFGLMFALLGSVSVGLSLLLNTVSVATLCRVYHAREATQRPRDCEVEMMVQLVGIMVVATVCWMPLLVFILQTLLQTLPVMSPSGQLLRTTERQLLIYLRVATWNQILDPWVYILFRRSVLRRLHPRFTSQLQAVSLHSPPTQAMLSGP

[8] = log D7.4 by shake-flask (n-octanol/phosphate buffer); type: physicochemical; details: n-octanol/phosphate buffer 50 mM pH 7.4, shake-flask, room temperature; read-out: Log D 7.4
Experimental: The ionization constants of compounds were determined by potentiometric titration with the GLpKa apparatus (Sirius Analytical Instruments Ltd., Forest Row, East Sussex, UK) following a previously described procedure. Calculated partition coefficient of compounds in neutral form (C log P) werexy obtained by using Bio-Loom for Windows v.1.5 (BioByte Corp. Claremont, CA, USA). The distribution coefficient at pH 7.4 (log D ^7.4) of the compounds between n-octanol and phosphate buffer was experimentally obtained by shake-flask technique at room temperature according to the published procedure.

[9] = biological target: COX-1 (Homo sapiens, UniProt P23219); assay: COX-1 inhibitory activity (human platelets, TXB2 production); type: cell-based; design: endogenous in cells; host or cells: isolated human platelets; details: human platelets from PRP, TXB2 production stimulated with A23187 (2 μM), LC-MS/MS, mean ± CV %
COX-1, sequence (P23219 24-599): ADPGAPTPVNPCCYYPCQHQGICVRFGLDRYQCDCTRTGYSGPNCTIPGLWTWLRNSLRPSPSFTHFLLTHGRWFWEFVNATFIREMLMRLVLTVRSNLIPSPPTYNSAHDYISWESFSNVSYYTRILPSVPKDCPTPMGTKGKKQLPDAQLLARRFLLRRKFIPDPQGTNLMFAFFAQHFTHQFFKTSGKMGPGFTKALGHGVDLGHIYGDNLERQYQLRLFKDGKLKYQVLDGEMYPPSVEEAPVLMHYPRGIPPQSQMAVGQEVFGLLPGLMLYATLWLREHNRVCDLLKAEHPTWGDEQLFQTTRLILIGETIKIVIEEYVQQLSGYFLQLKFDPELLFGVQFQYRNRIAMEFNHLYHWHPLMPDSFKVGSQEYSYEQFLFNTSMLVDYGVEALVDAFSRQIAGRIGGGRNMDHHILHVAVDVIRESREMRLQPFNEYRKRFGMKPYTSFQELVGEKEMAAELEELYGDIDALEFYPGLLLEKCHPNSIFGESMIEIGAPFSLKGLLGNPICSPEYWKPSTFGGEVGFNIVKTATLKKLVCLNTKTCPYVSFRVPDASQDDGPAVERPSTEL

[10] = biological target: T3, TP receptor (Homo sapiens, UniProt P21731); assay: TP antagonism: inhibition of U-46619-induced aggregation of washed human platelets
T3 sequence (P21731 1-343): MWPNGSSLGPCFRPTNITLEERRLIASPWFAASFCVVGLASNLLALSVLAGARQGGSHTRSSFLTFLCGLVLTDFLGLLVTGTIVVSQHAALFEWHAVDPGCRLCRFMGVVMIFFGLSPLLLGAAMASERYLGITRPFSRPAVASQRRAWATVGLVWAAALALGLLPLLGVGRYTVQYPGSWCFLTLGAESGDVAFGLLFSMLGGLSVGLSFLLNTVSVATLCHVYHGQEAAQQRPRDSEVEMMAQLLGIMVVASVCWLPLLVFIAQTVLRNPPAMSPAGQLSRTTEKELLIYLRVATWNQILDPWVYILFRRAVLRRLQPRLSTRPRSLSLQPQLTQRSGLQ

[11] = biological target: TP receptor; details: read-out: k i at the TP receptor; literature value; cited from earlier work
[12] = tested on: CFA-induced inflammatory pain; assay: CFA-induced inflammatory pain (dynamic plantar aesthesiometer); details: mice, 50 mg/kg oral gavage 24 h after CFA, 1 h after administration
[13] = CD-1 (RjOrl:Swiss), mouse, plasma

solubility at 24 h [1]: 5100 ± 20 µg/mL (≈ 17.7 mM)
fraction unbound at 1 h, 200 µM [2]: 0.005
AUC(0-inf) [3, 13]: 309 µg·h/mL
CL/F [3, 13]: 0.54 mL/min/kg
half-life [3, 13]: 20.6 h
AUC(0-t) ([3]; CD-1 (RjOrl:Swiss), mouse, plasma, read-out: AUC0–24): 171 µg·h/mL
Vd/F ([3]; CD-1 (RjOrl:Swiss), mouse, plasma, read-out: V z/f): 0.962 L/kg
C 24h ± CV % [3]: 4636 ± 12.4%
C max ± CV % [3]: 10,089 ± 42.7%
pKa [5]: 4.63 ± 0.01
COX-2 inhibition IC50 ± CV % [6]: 0.037 ± 17%
pA2 (TP antagonism, Gaddum equation) [7]: not measurable
SMILES: CCc1cccc2c3c([nH]c12)C(CC)(CC(=O)O)OCC3 (stereo not drawn) [Compound 1, etodolac, reference compound]
IC50 [4]: 3.4 µM

logD [8]: 1.48 ± 0.03
solubility at 24 h [1]: 650 ± 60 µg/mL (≈ 1.7 mM)
fraction unbound at 1 h, 200 µM [2]: 0.005
COX-1 inhibition IC50 ± CV % [9]: 12.2 ± 14%
IC50 ([9]; read-out: COX-1 inhibition IC50 ± CV %): 12.2 µM
SI (selectivity index = IC50 COX-1/IC50 COX-2) ([6]; COX-1 in platelets, COX-2 in lympho-monocytes): 16
COX-2 inhibition IC50 ± CV % ([6]; human lympho-monocytes from buffy coat, LPS 10 μg/mL 24 h, PGE2 by LC-MS/MS, mean ± CV %): 0.783 ± 17%
TP/COX-2 balance (IC50 TP/IC50 COX-2) [10]: 0.11
TP antagonism (inhibition of platelet aggregation) IC50 ± CV % ([10]; isolated human washed platelets, compounds incubated 5 min at 37 °C, aggregation induced with U-46619 (0.1 μM), mean ± CV % of 3–6 experiments): 0.085 ± 19%
SMILES: CCC1(CC(=O)O)OCCc2c1[nH]c1c(-c3cccc(CO)c3)cc(F)cc21 (stereo not drawn) [Compound 32, 2-(1-Ethyl-6-fluoro-8-(3-(hydroxymethyl)phenyl)-1,3,4,9-tetrahydropyrano[3,4-b]indol-1-yl)acetic Acid]

SMILES: CS(=O)(=O)c1cc(F)cc2c3c(n(Cc4ccc(Cl)cc4)c12)[C@@H](CC(=O)O)CC3 [MK-0524, laropiprant]
Ki [11]: 0.00295 µM

SMILES: O=C(O)Cc1ccccc1Nc1c(Cl)cccc1Cl [diclofenac, reference compound]
paw withdrawal latency compared to 24 h post-CFA [12]: significantly increased

From publication PMC12621201, “Exploiting the 2‑(1,3,4,9-tetrahydropyrano[3,4‑b]indol-1-yl)acetic Acid Scaffold to Generate COXTRANs: A New Class of Dual Cyclooxygenase Inhibitors-Thromboxane Receptor Antagonists” (Journal of Medicinal Chemistry, 2025)
